For 14 molecules, Ki results are on record in US20030095958A1, “Inhibitors of bace” (priority 2001, published 2003).

Chain of BACE (P56817 46-501): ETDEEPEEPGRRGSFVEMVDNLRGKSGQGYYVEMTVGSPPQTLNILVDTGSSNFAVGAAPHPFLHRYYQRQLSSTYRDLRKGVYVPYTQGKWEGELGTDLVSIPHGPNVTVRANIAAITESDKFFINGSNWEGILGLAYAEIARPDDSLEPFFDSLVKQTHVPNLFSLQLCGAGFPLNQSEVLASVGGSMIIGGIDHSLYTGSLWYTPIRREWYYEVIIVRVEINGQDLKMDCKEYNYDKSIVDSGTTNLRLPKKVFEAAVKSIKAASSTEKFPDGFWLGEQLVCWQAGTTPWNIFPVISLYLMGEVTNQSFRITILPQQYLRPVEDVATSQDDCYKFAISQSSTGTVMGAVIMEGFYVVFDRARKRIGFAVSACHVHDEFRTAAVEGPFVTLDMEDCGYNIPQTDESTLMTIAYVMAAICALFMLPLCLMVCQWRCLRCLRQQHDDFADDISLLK

The assay addresses BACE (Homo sapiens, UniProt P56817). The experiment in a line: Ki Determination for the Inhibition of BACE (FS-1 peptide fluorescence cleavage assay). It counts as biochemical. As to conditions: apparent Ki; 50 nM BACE, 10 μM FS-1 substrate, 0.1M sodium acetate pH 4.5. As for the experimental part: Compounds were tested against BACE activity using the following modifications of the method described in J. Ermolieff et al. (2000) Biochemistry 39(51):16263.
All compound evaluations were performed in 0.1M sodium acetate (buffer), pH, 4.5, 10 μM substrate (FS-1 peptide as described in the reference above; this is commercially available), varying concentrations of the test compound or control (DMSO to yeild 2% vol/vol), and 50 nM BACE. The assay volume is 100 μL.
Two microliters of the test compound dissolved in DMSO are added to each well in a 96-well microtiter plate. Seventy eight microliters of BACE are mixed with buffer and added to each well then incubated at room temperature for 15 minutes. A stock solution of 50 μM FS-1 substrate was prepared by addition of an aliquot of FS-1 substrate which was dissolved in DMSO to the buffer and mixed well. The reaction is initiated by addition of 20 μL of the FS-1 mix to the remaining, preincubated assay components. The cleavage reaction of substrate to product is measured using a Molecular Devices fluorescence plate reader with the excitation and emission filter pairs of 355 nm and 495 nm, respectively. Apparent Ki values are determined by fitting the data to the integrated equation for competitive tight binding inhibition.
In the case of `COC(=O)c1cccc(OCc2ccc(COc3ccccc3C(F)(F)F)cc2C2=CCNCC2)c1` [Compound 328, 3-[2-(1,2,3,6-Tetrahydro-pyridin-4-yl)-4-(2-trifluoromethyl-phenoxymethyl)-benzyloxy]-benzole acid methyl ester], the Ki lay within 3 to 30 µM.
The value for `COc1cc(COc2ccc3c(c2)c2c(n3C(=O)c3ccc4ccccc4c3)CNCC2)cc(OC)c1` [Compound 527, [6-(3,5-Dimethoxy-benzyloxy)-1,2,3,4-tetrahydro-b-carbolin-9-yl]-naphthalen-2-yl-methanone] was less than 3 µM; that for `OCc1ccc(-c2cc(COc3ccccc3C(F)(F)F)c(C3=CCNCC3)cc2COc2ccccc2C(F)(F)F)cc1` [Compound 366, [4′-(1,2,3,6-Tetrahydro-pyridin-4-yl)-2′,5′-bis-(2-trifluoromethyl-phenoxymethyl)-biphenyl-4-yl]-methanol] was less than 3 µM.
To `FC(F)(F)c1ccccc1OCc1ccc(COc2ccc3ccccc3c2)c(C2=CCNCC2)c1` [Compound 321, 4-[2-(Naphthalen-2-yloxymethyl)-5-(2-trifluoromethyl-phenoxymethyl)-phenyl]-1,2,3,6-tetrahydro-pyridine] belongs less than 3 µM; to `FC(F)(F)c1ccccc1OCc1cc(Br)ccc1C1=CCNCC1` [Compound 377, 4-[4-Bromo-2-(2-trifluoromethyl-phenoxymethyl)-phenyl]-1,2,3,6-tetrahydro-pyridine], 3 to 30 µM.
Consider `FC(F)(F)c1ccccc1OCc1cc(-c2ccc(Cl)c(Cl)c2)c(COc2ccccc2C(F)(F)F)cc1C1=CCNCC1` [Compound 335, 4-[3′,4′-Dichloro-2,5-bis-(2-trifluoromethyl-phenoxymethyl)-biphenyl-4-yl]-1,2,3,6-tetrahydro-pyridine], for which the Ki lay within 3 to 30 µM.
The value for `O=[N+]([O-])c1ccccc1-c1cc(COc2ccccc2C(F)(F)F)c(C2=CCNCC2)cc1COc1ccccc1C(F)(F)F` [Compound 344, 4-[2′-Nitro-2,5-bis-(2-trifluoromethyl-phenoxymethyl)-biphenyl-4-yl]-1,2,3,6-tetrahydro-pyridine] was less than 3 µM; that for `O=C(Nc1ccc2ccccc2c1)C1CNCCC1c1ccc(-c2ccccc2)cc1` (centres unmarked) [Compound 402] was less than 3 µM; that for `O=C(Nc1cc(C(F)(F)F)ccc1N1CCNCC1)c1cnc2ccccc2n1` [Compound 189, Quinoxaline-2-carboxylic acid (2-piperazin-1-yl-5-trifluoromethyl-phenyl)-amide] was 3 to 30 µM.
To `COC(=O)c1ccc(OCc2ccc(COc3ccccc3C(F)(F)F)cc2C2=CCNCC2)cc1` [Compound 329, 4-[2-(1,2,3,6-Tetrahydro-pyridin-4-yl)-4-(2-trifluoromethyl-phenoxymethyl)-benzyloxy]-benzoic acid methyl ester] belongs 3 to 30 µM; to `O=C(OCc1cc(C2=CCNCC2)c(COc2ccccc2C(F)(F)F)cc1-c1ccoc1)c1cccnc1Cl` [Compound 386, 2-Chloro-nicotinic acid 2-furan-3-yl-5-(1,2,3,6-tetrahydro-pyridin-4-yl)-4-(2-trifluoromethyl-phenoxymethyl)-benzyl ester], less than 3 µM; to `O=C(Nc1cc(-c2cc(F)c(C(F)(F)F)cc2F)ccc1N1CCNCC1)c1cccc2ccccc12` [Compound 162, Naphthalene-1-carboxylic acid (2′,5′-difluoro-4-piperazin-1-yl-4′-trifluoromethyl-biphenyl-3-yl)-amide], less than 3 µM.
The value for `Cc1ccccc1Oc1ccc(N2CCNCC2)c(NC(=O)c2cccc3ccccc23)c1` [Compound 140, Naphthalene-1-carboxylic acid (2-piperazin-1-yl-5-o-tolyloxy-phenyl)-amide] was 3 to 30 µM; that for `COc1ccc2c(C(=O)Nc3cc(C(F)(F)F)ccc3N3CCNCC3)cccc2c1` [Compound 143, 6-Methoxy-naphthalene-1-carboxylic acid (2-piperazin-1-yl-5-trifluoromethyl-phenyl)-amide] was greater than 30 µM.
